Test results published in patent US20250049930A1, “PROTAC MOLECULES TARGETING FOXP3 AND USES THEREOF” (CEDARS-SINAI MEDICAL CENTER, priority 2022, published 2025).
Residues, ends and D or L forms follow the SMILES beside them. *: point of attachment. X1 = O=C1CCC(N2C(=O)c3cccc(*)c3C2=O)C(=O)N1; PEG4 = NCCOCCOCCOCCOCCC(=O)O

Tests used:
cereblon = cereblon (Homo sapiens, UniProt Q96SW2); test: SPR assay, binary complex; format: binding; details: 25° C., binary complex of cereblon and P-FoxP3
Experimental: The SPR assay for ternary complex cooperativity was performed by BOC Sciences who provided the following details: Various concentrations of cereblon were dissolved in water and manually printed onto the 47 nm gold-coated PlexArray Nanocapture Sensor Chip (Plexera Bioscience, Seattle, WA) at 40% humidity. Each concentration was printed in replicate, and each spot contained […] of sample solution. The chip was incubated overnight in 80% humidity at 4° C., and rinsed with 10×PBST for 10 minutes, 1×PBST for 10 minutes, and deionized water twice for 10 minutes. The chip was then blocked with 5% non-fat milk in water overnight, washed as before, and then dried under a stream of nitrogen.
SPR imaging measurements were performed with PlexAray HT (Plexera Bioscience, Seattle, WA, US). Buffers and samples were injected by a non-pulsatile piston pump into the 30 μL flow cell. […] The signal changes after binding and washing (in AU) are recorded as the assay value. Selected protein-grafted regions in the SPR images were analyzed, and the average reflectivity variations of the chosen areas were plotted as a function of time. Real-time binding signals were recorded and analyzed by Data Analysis Module (DAM, Plexera Bioscience, Seattle, WA, US). […]

FoxP3 = biological target: T1, FoxP3 (Mus musculus, UniProt Q99JB6); test: FoxP3 in CD4+ cells of mouse splenocytes treated in vitro, flow cytometry; format: cell-based
T1 construct: from tissue; host or cells: peripheral blood and spleen of mice
T1 sequence (Q99JB6 1-429): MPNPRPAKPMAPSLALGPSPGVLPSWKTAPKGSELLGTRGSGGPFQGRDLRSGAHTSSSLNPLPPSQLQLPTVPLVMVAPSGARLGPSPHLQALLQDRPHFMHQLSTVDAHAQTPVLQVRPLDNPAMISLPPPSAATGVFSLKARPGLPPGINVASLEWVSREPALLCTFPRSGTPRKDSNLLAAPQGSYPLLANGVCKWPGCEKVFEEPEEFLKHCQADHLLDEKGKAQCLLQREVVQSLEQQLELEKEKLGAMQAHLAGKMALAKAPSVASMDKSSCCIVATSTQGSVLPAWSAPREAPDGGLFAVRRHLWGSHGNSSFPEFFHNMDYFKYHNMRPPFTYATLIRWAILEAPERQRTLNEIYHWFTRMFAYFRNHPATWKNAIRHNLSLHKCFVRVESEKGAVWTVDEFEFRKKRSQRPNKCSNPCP
Experimental: FIGS. 2A-2E depict that a proteolysis-targeting chimera (PROTAC) targeting FoxP3 (PF) degraded FoxP3 in vitro and in vivo. P-FoxP3 forms a ternary complex with cereblon and FoxP3. Surface plasmon resonance (SPR) assay was used to measure the equilibrium dissociation constant (KD) for the ternary complex consisting of cereblon, P-FoxP3 and FoxP3 (FIG. 2A). SPR assay was used to measure the KD for the binary complex consisting of cereblon and P-FoxP3 (FIG. 2B). Mouse splenocytes were treated in vitro with varying PF concentrations and percent of CD4+ cells staining for intracellular FoxP3 was assessed by flow cytometry. (FIG. 2C). […] 72 hours later, FoxP3 positive CD4+ cells in peripheral blood and spleen were assessed by flow cytometry (FIG. 2D). FoxP3 positive CD4+ cells in peripheral blood were assessed by flow cytometry at various timepoints following PF administration (FIG. 2E). […]
To determine if PF results in the degradation of FoxP3, mouse splenocytes were treated in vitro with varying concentrations of PF and percent of CD4+ cells staining for intracellular FoxP3 was assessed by flow cytometry. […] 72 hours later, FoxP3 positive CD4+ cells in peripheral blood and spleen were assessed by flow cytometry. […] To understand the time course of FoxP3 decrease, serial blood draws were assessed after a single injection of PF (FIG. 2E). […]

Sequence of cereblon (Q96SW2 whole entry): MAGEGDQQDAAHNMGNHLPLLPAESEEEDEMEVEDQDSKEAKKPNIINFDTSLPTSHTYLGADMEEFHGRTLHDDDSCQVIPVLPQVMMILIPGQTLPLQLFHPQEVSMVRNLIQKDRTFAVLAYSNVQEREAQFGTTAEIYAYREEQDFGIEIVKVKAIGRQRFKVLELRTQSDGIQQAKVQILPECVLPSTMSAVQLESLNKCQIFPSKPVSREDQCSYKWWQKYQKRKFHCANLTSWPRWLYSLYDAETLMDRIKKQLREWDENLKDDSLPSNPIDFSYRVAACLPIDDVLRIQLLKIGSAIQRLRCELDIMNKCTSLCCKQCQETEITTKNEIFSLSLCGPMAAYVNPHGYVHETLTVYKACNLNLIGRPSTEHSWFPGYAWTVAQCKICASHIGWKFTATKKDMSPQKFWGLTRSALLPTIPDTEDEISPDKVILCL

With `CSCC[C@H](NC(=O)[C@H](C)NC(=O)[C@H](Cc1ccccc1)NC(=O)[C@H](Cc1ccccc1)NC(=O)[C@@H]1CCCN1C(=O)[C@H](Cc1c[nH]c2ccccc12)NC(=O)[C@H](CCSC)NC(=O)[C@H](CCCCN)NC(=O)[C@H](CCCNC(=N)N)NC(=O)[C@H](Cc1ccccc1)NC(=O)[C@H](CO)NC(=O)[C@H](CCC(N)=O)NC(=O)[C@H](Cc1ccccc1)NC(=O)[C@H](CC(=O)O)NC(=O)[C@H](CCCNC(=N)N)NC(=O)CCOCCOCCOCCOCCNc1cccc2c1C(=O)N(C1CCC(=O)NC1=O)C2=O)C(=O)O` (stereo partly drawn) [PF, Pomalidomide-PEG4-RDFQSFRKMWPFFAM] ({X1-PEG4}-RDFQSFRKMWPFFAM-OH) the Kd (cereblon) was 987 nM, the “FoxP3 in CD4+ cells” value (FoxP3; fresh mouse splenocytes cultured with IL-2, 1 μm P-FoxP3, 7 days, vs without P-FoxP3) was “degraded FoxP3 in CD4+ cells” and the “percent of CD4+ cells staining for intracellular FoxP3” value (FoxP3; mouse splenocytes treated in vitro with varying PF concentrations) was “decreased in a dose-dependent manner”.
